Data: patent US20010036955A1, “Method of inhibiting angiogenesis” (Genentech, Inc., priority 1998, published 2001)
*1 amine or outer side, *2 acyl side, *3 side chain or, on linkers, in order; H or OH if unused. Where a SMILES comes first, the peptide text is derived from it. Bridges are numbered along the chain shown (N, C = ends). Roman numbers before positions name the chains, in order. [ ]: non-standard residue; d: D form. Actinocin(9to1) = Cc1c2oc3c(C)ccc(C(=O)[*:1])c3nc-2c(C(=O)[*:2])c(N)c1=O; NMeV = CN[C@H](C(=O)O)C(C)C; Sar = CNCC(=O)O

Tests used:
Assay type in all cases: cell-based, human
HUVEC tube formation [1] = assay: Endothelial tube assay (number of tubes, three-dimensional collagen gels); conditions: for IC50: Homo sapiens, HUVEC in collagen gels with bFGF, VEGF and PMA, tubes counted at 48 hr, read-out: inhibition of tube formation, IC50; for inhibition of tube formation (FIG. 3B): at 100 μM; for formation of tube-like structures: endothelial cells in three-dimensional type I collagen lattice
Description: In this model, endothelial cells are suspended in a three-dimensional collagen lattice of type I collagen and undergo rapid morphogenesis. Within 4 hr numerous vacuoles are observed in the majority of endothelial cells; at 24 hr the formation of tube-like structures can be observed and at 48 hr an interconnected network of tube-like structures is observed.
Collagen gels were formed by mixing together ice-cold gelatin solution (10× M199, H2O, 0.53M NaHCO3, 200 mM L-glutamine, type I collagen, 0.1M NaOH, 100:27.2:50:10:750:62.5 by volume) and cells in 1× basal medium at a concentration of 3×10^6 cells/ml at a ratio of 4 volumes gelatin solution: 1 volume of cells. After gelation at 37 for 30 min, the gels were overlaid with IX basal medium consisting of M199 supplemented with 1%FBS, 1× ITS, 2 mM L-glutamine, 50 μg/ml ascorbic acid, 26.5 mM NaHCO3, 100 U/ml penicillin and 100 U/mil streptomycin supplemented with 40 ng/ml BFGF, 40 ng/ml VEGF and 80 nM phorbol myristate acetate (PMA). All drugs were added to the IX basal medium immediately after gelation. To quantitate tube formation, the number of tubes per high power (20× field) was determined 48 hr after addition of the basal medium Five independent fields separated by 100 μm optical sections were assessed for each well. Cytotoxicity was assessed using an XTT kit from Boehringer Mannheim (Indianapolis, Ind.).

HUVEC proliferation = assay: Proliferation assay (BrdU incorporation); conditions: type I collagen-coated surface, VEGF, bFGF and PMA
Description: Cells were cultured in above medium in the presence of drugs or vehicle for 4 hr. 5 μl (100 μM) of 5′-bromo-2′-deoxyuridine (BrdU) was added in a final volume of 100 μl/well and cells were incubated for another 20 hr. BrdU incorporation was evaluated by an ELISA kit from Boehringer Mannheim (Indianapolis, Ind.).

HUVEC tube formation [2] = assay: Endothelial tube assay of Example 7 (average tube length, 3-D type I collagen gels)
Description: Collagen gels were formed by mixing together ice-cold gelation solution (IOX M199, H2O, 0.53M NaHCO3, 200 mM L-glutamine, type I collagen, 0.1M NaOH, 100:27.2:50:10:750:62.5 by volume) and cells in 1× basal medium (see below) at a concentration of 3×10^6 cells/ml at a ratio of 4 volumes gelation solution: 1 volume of cells (18). After gelation at 37° C. for 30 min, the gels were overlaid with 1× basal medium consisting of M199 supplemented with […], 1× ITS, 2 mM L-glutamine, […] ascorbic acid, 26.5 mM NaHCO3, 100 U/ml penicillin and 100 U/ml streptomycin supplemented with 40 ng/ml bFGF, 40 ng/ml VEGF, 80 nM PMA or the combination of PMA (80 nM), bFGF and VEGF (40 ng/ml each). All drugs were added to the 1× basal medium immediately after gelation. To quantify tube formation, the average tube length was determined by measuring total tube length (long axis) in three consecutive layers of a low power (10×) field using Openlab software (Improvision Inc, England). Each layer was separated by 100 μm.

MMP-9 mRNA = assay: Real time RT-PCR (Taqman) assay in HUVEC, Example 7; conditions: for MMP-9 mRNA levels: 40 ng/ml, at 4 h and 24 h
Description: (§1) Total RNA was extracted from HUVEC cultured in 3-D type I collagen gels for various times in 1× basal medium supplemented with 40 ng/ml bFGF, 40 ng/ml VEGF, […] PMA or the combination of PMA (80 nM), bFGF and VEGF (40 ng/mil each). […] For all mRNAs evaluated a sample of total RNA (100 ng) was added to a 50 μl RT-PCR reaction mixture according to the manufacturer's protocol (Roche Molecular Systems, Inc., Branchburg, N.J.). The thermal cycling conditions included 1 cycle at 48° C. for 30 min, 1 cycle at 95° C. for 10 min, 40 cycles at 95° C. for 15 s, at 60° C. for 1 min, and finally hold at 25° C. for 2 min. Standard curves for expression of each gene were generated by serial dilution of the total RNA isolated from U937 cells. […] Therefore, the relative mRNA expression of each gene was normalized to the level of GAPDH in the same RNA preparation.

MMP-2 secretion = assay: Zymographic assay of HUVEC conditioned media
Description: (§2) The presence of gelatinases MMP-2 and -9 in conditioned media from cultured HUVEC in 3-D type I collagen gels was analyzed by zymography. Media from different treatments or from different time points were concentrated and then 10 μl aliquots were mixed with 2 × sample buffer without reducing agent or heating. Samples were loaded on a 10% polyacrilamide gel containing 0.1% gelatin (Novex, San Diego, Calif.) for electrophoresis. In addition to using regular molecular weight markers the MMP-2 and -9 zymographic standards (Chemicon, Temecula, Calif.) were used as standards for gelatinases. The gels were incubated for 30 min at room temperature in renaturing buffer and in developing buffer for overnight at 37° C., and then stained with 0.25% Coomassie brilliant blue (Sigma). Gelatinase activity was identified as lightly stained or clear bands following destaining.

MMP-9 secretion = assay: Zymographic assay of HUVEC conditioned media
Description: as §2

MMP-2 mRNA = assay: Real time RT-PCR (Taqman) assay in HUVEC, Example 7; conditions: 100 μM; 24 h
Description: as §1

[3] = at concentrations of up to 100 μM
[4] = PMA 0.8, 8, 80 and 800 nM for 24 h

Cc1c(C)c2c(c(C)c1O)CCC(C)(COc1ccc(CC3SC(=O)NC3=O)cc1)O2 (single isomer, unassigned; (+)) [troglitazone, (+)-5-[[4-[(3,4-dihydro-6-hydroxy-2,5,7,8-tetramethyl-2H-1-benzopyran-2-yl)methoxy]phenyl]methyl]-2,4-thiazolidinedione]
IC50 (HUVEC tube formation [1]): 6.2 µM

CC1=C(/C=C/C(C)=C\C=C\C(C)=C\C(=O)O)C(C)(C)CCC1 [9-cis-retinoic acid]
effect on tube formation (HUVEC tube formation [1]; 9-cis-retinoic acid 30 μM alone): no significant effect

CN(CCOc1ccc(CC2SC(=O)NC2=O)cc1)c1ccccn1 (stereo not shown) [BRL49653, 5-[4-[2-[N-methyl-N-(2-pyridyl)amino]ethoxy]benzyl]thiazolidine-2,4-dione]
IC50 (HUVEC proliferation; Homo sapiens, HUVEC, read-out: inhibition of endothelial cell (HUVEC) proliferation, IC50): 15.7 µM

CCCc1c(OCCCCc2nnn[nH]2)ccc(C(C)=O)c1O [LY 171883]
inhibition of tube formation (FIG. 3B) (HUVEC tube formation [1]): do not inhibit
inhibition of tube formation (HUVEC tube formation [1]; [3]): did not significantly inhibit

CCCCC[C@H](O)/C=C/[C@H]1[C@H](O)CC(=O)[C@@H]1CCCCCCC(=O)O [PGE1]
effect on HUVEC proliferation (HUVEC proliferation): did not affect

CCCCC[C@H](O)/C=C/[C@H]1[C@H](O)CC(=O)[C@@H]1C/C=C\CCCC(=O)O [PGE2]
effect on HUVEC proliferation (HUVEC proliferation): did not affect

CCCCCCCCCCCCCC(=O)O[C@@H]1[C@@H](C)[C@@]2(O)[C@@H](C=C(CO)C[C@]3(O)C(=O)C(C)=C[C@@H]23)[C@@H]2C(C)(C)[C@]12OC(C)=O [PMA, phorbol 12-myristate 13-acetate]
concentration giving maximal induction of tube formation (HUVEC tube formation [2]; [4]): 80 nM
tube formation (average tube length) (HUVEC tube formation [2]; [4]): dose-dependent increase
increase of MMP-9 mRNA levels between 24 h and 4 h (MMP-9 mRNA; HUVEC in 3-D collagen gels, PMA 80 nM, bFGF and VEGF 40 ng/ml each): more than 2 fold
MMP-2 secretion into the culture medium (MMP-2 secretion; [4]): dose-dependent stimulation
active MMP-2 in supernatants compared with either growth factor alone (MMP-2 secretion; gelatin zymography, PMA in the absence or presence of FGF and VEGF): more active MMP-2
MMP-9 secretion into the culture medium (MMP-9 secretion; [4]): dose-dependent stimulation
zymogen form of MMP-9 (92 kD) in culture supernatants (MMP-9 secretion; gelatin zymography, PMA or PMA in combination with bFGF and VEGF): detected

Cc1cccc(Nc2cc(Cl)nc(SCC(=O)O)n2)c1C [WY 14643]
inhibition of tube formation (FIG. 3B) (HUVEC tube formation [1]): do not inhibit
inhibition of tube formation (HUVEC tube formation [1]; [3]): did not significantly inhibit
HUVEC tube formation (HUVEC tube formation [2]; 100 μM, 3-D collagen gels): do not inhibit
MMP-2 mRNA expression (MMP-2 mRNA): did not alter
MMP-9 mRNA expression (MMP-9 mRNA; 100 μM, 24 h): did not alter
MMP-2 protein secretion (MMP-2 secretion; 100 μM, 24 h): did not alter
MMP-9 protein secretion (MMP-9 secretion; 100 μM, 24 h): did not alter

Cc1c2oc3c(C)ccc(C(=O)N[C@@H]4C(=O)N[C@H](C(C)C)C(=O)N5CCC[C@H]5C(=O)N(C)CC(=O)N(C)[C@@H](C(C)C)C(=O)O[C@@H]4C)c3nc-2c(C(=O)N[C@@H]2C(=O)N[C@H](C(C)C)C(=O)N3CCC[C@H]3C(=O)N(C)CC(=O)N(C)[C@@H](C(C)C)C(=O)O[C@@H]2C)c(N)c1=O [actinomycin D] (I: T[dV]P[Sar][NMeV] / II: T[dV]P[Sar][NMeV]; ester I:1-I:C, II:1-II:C; linker I:N-II:N via Actinocin(9to1))
formation of tube-like structures (HUVEC tube formation [1]): completely block

CC1(COc2ccc(CC3SC(=O)NC3=O)cc2)CCCCC1 (stereo not shown) [ciglitizone]
IC50 (HUVEC tube formation [1]): 2.7 µM

C[C@@H]1C[C@@H]([C@H](O)CC2CC(=O)NC(=O)C2)C(=O)[C@@H](C)C1 [cycloheximide]
formation of tube-like structures (HUVEC tube formation [1]): completely block

CCCCCCCC/C=C\CCCCCCCCCCCC(=O)O [erucic acid]
inhibition of tube formation (HUVEC tube formation [1]; 200 μM): did not significantly inhibit
inhibition of tube formation (FIG. 3B) (HUVEC tube formation [1]): do not inhibit

VEGF
MMP-9 mRNA levels (MMP-9 mRNA): at or below the limits of detection

bFGF: recombinant basic fibroblast growth factor
MMP-9 mRNA levels (MMP-9 mRNA): at or below the limits of detection
